Measured values from a melting point compilation (Tetko et al.; mined from patent text by program, amines drawn as free bases though some values may be those of a salt).

With `Oc1ccc2c(c1O)OCC(c1ccc(F)cc1)C2` (stereo not drawn) the melting point was 166 to 168 °C.
`NC(=O)C1(c2ccc(Br)nc2)CCCC1` showed a melting point of 211 to 212 °C.
Work on `COC(=O)C1(NC(=O)OCc2ccccc2)CCC(=O)O1` (stereo not drawn) yielded a melting point of 134 °C.
With `COc1nc(-n2cc(C(=O)O)c(=O)c3cc(F)c(F)c(Cl)c32)c(F)cc1F` the melting point was 205 to 210 °C.
With `CCn1ncc2c(NCC34CC5CC(CC(C5)C3)C4)c3ccccc3nc21` the melting point was 310 °C.
With `Cc1noc(NS(=O)(=O)c2ccsc2C(=O)N(C)c2ccccc2)c1Br` the melting point was 51 to 55 °C.
Compound `CCCP(=O)(CCC)COS(=O)(=O)c1c(C)cccc1Cl` has a melting point of 51 to 53 °C.
Compound `CCOC(=O)NCC(=O)c1ccc(OCC(=O)NCCN2CCOCC2)cc1` has a melting point of 133 to 135 °C.
`CCCCCCCc1ccc(CCCCCCC)c(C#N)c1C#N` gave a melting point of 4.6 °C.
Compound `Fc1cc(F)c2c(c1)CC(n1cc[nH]c1=S)C2` (stereo not drawn) has a melting point of 185 to 186 °C.
For `O=C(Oc1ccccc1)C(I)=C(I)I`, the melting point was 83 to 84.5 °C.
With `O=C(O)CN1C(=O)C(=Cc2ccc(Cl)cc2)SC1=S` the melting point was 272 to 274 °C.
Compound `CC(C)(C)c1ccc(-c2cc(N3CCOCC3)cc(=O)o2)cc1` has a melting point of 230 to 232 °C.
Work on `Cc1c(Cc2ccc(C(C)C)cc2)c2c(c(C)c1NC(=O)CC(C)(C)C)C(=O)C(C)(C)O2` yielded a melting point of 193 to 194 °C.
In the case of `COc1cc(S(C)=O)ccc1-c1ccc(C#N)c(=O)[nH]1` (stereo not drawn), the melting point was 239 to 241 °C.
`OC(c1ccc(Br)cc1)(c1ccc(Br)cc1)c1cncnc1` showed a melting point of 89 to 90 °C.
In the case of `CCCCCCCCCCNC(=O)N[C@H]1CCCNC(=O)C1`, the melting point was 97 to 98 °C.
For `O=C1c2ccccc2C(=O)N1Cc1ccccc1[N+](=O)[O-]`, the melting point was 190 to 209 °C.
Compound `CC(=O)COc1ccc(/C=C/C(=O)O)c(Oc2ncc(C(F)(F)F)cc2Cl)c1` has a melting point of 179 to 180 °C.
`O=S(=O)(Cc1ccccc1Cl)c1nnc(C(F)(F)F)s1` showed a melting point of 103 °C.
For `Cn1ccc2ccc(N3Cc4ccc(-c5cccnc5)cc4C3=O)cc21`, the melting point was 187 to 188 °C.
Work on `O=C(O)Cc1cccc(OCc2ccc3oc([N+](=O)[O-])c(-c4ccccc4)c3c2)c1` yielded a melting point of 144 to 145 °C.
With `CCNCC1CCN(c2c(F)c(C)c3c(=O)c(C(=O)O)cn(C4CC4)c3c2F)C1` (stereo not drawn) the melting point was 198 to 199 °C.
In the case of `CCC(C)C(NC(c1ccccc1)c1ccccc1)P(O)O` (stereo not drawn), the melting point was 174 to 176 °C.
With `CCn1c2ccccc2c2ccncc21` the melting point was 195 to 196 °C.
`C/N=C1\N(C)C(=O)C(=Cc2c[nH]c3ccccc23)N1C` gave a melting point of 241 to 242 °C.
Compound `CN(C1CCN(Cc2cnc3ccccc3c2)CC1)S(=O)(=O)c1ccc(Nc2nccc(Nc3ccc(F)cc3)n2)cc1` has a melting point of 125 to 127 °C.
With `Cn1nc(-c2c(NCc3ccccc3)nc(N)nc2-c2ccccc2)ccc1=O` the melting point was over 250 °C.
Compound `CCOC(=O)CCCOc1ccc2c(c1)C(N(CC)S(C)(=O)=O)CC(C)(C)O2` (stereo not drawn) has a melting point of 40 to 42 °C.
With `CCCCc1nccn1Cc1c(F)cccc1Cl` the melting point was 106 to 108 °C.
For `CC(C)/C=C1\NC(=O)CC1=O`, the melting point was 134 to 136 °C.
Compound `CC(N1C(=O)C(=O)N(c2ccc(C#N)cc2)C1=S)C(C)(C)C` (stereo not drawn) has a melting point of 198 °C.
`CC(=O)CCCCC(=O)Nc1ccc(CC(NC(C)=O)C(=O)NCC(=O)OCc2ccccc2)cc1` (stereo not drawn) showed a melting point of 178 to 180 °C.
`Cc1oc(-c2ccccc2)nc1COc1ccc(I)cn1` showed a melting point of 129 to 130 °C.
In the case of `CC1c2ccc(F)n2-c2cc(F)c(F)cc2N1S(=O)(=O)c1ccc(O)cc1` (stereo not drawn), the melting point was 184 to 189 °C.
In the case of `CCCc1c(OCc2c(CCCCc3cccnc3)ccc(C(N)=O)c2OCC)ccc(C(C)=O)c1O`, the melting point was 107 to 109 °C.
With `COc1ccc(COC(=O)c2ccccc2)cc1OCc1ccccc1` the melting point was 75.7 °C.
Compound `COc1nc(C(=O)NS(=O)(=O)c2c(Cl)cccc2Cl)cs1` has a melting point of 162 to 165 °C.
Compound `Cc1ccnc(C(O)c2cc(F)ccc2F)c1` (stereo not drawn) has a melting point of 105 to 106 °C.
`CCOC(=O)c1cn(C2COC2)c2cc(F)c(F)cc2c1=O` showed a melting point of 177 to 178 °C.
With `O=C(C=Cc1ccc2c(c1)OCO2)c1cccc(O)c1` the melting point was 188 to 189 °C.
Work on `CCN1C(=O)CN(c2ccccc2)C1=S` yielded a melting point of 122 °C.
With `O=[N+]([O-])c1ccc(-n2cncn2)cc1F` the melting point was 90 to 91 °C.
Work on `CC(C)C[C@@H](C(=O)N[C@@H](C(C)C)[C@H](O)c1c(-c2ccccc2)c1=O)N(C)C(=O)OCc1ccccc1` yielded a melting point of 112 °C.
Compound `Cc1nn(-c2cc3nc(S)sc3cc2Br)c(=O)n1C(F)F` has a melting point of 254 to 256 °C.
Work on `CC1(C)CCC(C)(C)c2cc(N)c(N)cc21` yielded a melting point of 185 °C.
`C[C@@H]1N=C(c2ccccc2)c2cc(I)ccc2N(C)C1=O` showed a melting point of 115 °C.
For `CC(=O)c1ccc(S(=O)(=O)NCC(=O)O)cc1`, the melting point was 213 to 215 °C.
Compound `CCc1nnc(C(CCN2CC3CCC2CC3)(c2ccccc2)c2ccccc2)o1` has a melting point of 96 to 98.5 °C.
`COc1ccc(S(N)(=O)=O)cc1C(=O)Cl` showed a melting point of 148 to 150 °C.
Compound `Cc1cc(=O)n(C)c2cc(OCCCN3CCC(NC(=O)c4ccccc4)CC3)ccc12` has a melting point of 193 to 195 °C.
For `Cc1csc(-c2ccc(C(=O)Nc3ccc4cc(CN5CCCC5)cnc4c3C)cc2)c1`, the melting point was 224 to 225 °C.
Compound `OC(CN1CCC(O)(Cc2ccccc2)CC1)c1ccc(Cl)cc1` (stereo not drawn) has a melting point of 151 to 152 °C.
`CCOC(=O)c1cc(-c2ccccn2)[nH]n1` gave a melting point of 103 to 105 °C.
Work on `Cn1cc(-c2cc(-c3cnc4ccccc4c3)ccn2)n(-c2ccc(C(C)(C)CN)cc2)c1=O` yielded a melting point of 132 °C.
`Cc1nc(N)nc(N)c1-c1cc(Cl)cc(Cl)c1` gave a melting point of 242 to 244 °C.
In the case of `O=C(O)COc1cc2onc(-c3ccccc3F)c2cc1Cl`, the melting point was 214 to 215 °C.
`C[Si](C)(C)CCCCCNC(=O)n1cc(F)c(=O)[nH]c1=O` showed a melting point of 118 to 119 °C.
With `CC(=O)CC(=O)N1N=C(c2ccc([N+](=O)[O-])cc2)c2cc3c(cc2CC1C)OCO3` (stereo not drawn) the melting point was 169 to 171 °C.
`CCOC(=O)[C@H]1O[C@@H]1C(=O)N[C@H](COCc1ccsc1)CC(C)C` showed a melting point of 61 to 62.5 °C.
With `CCCc1c(OCCCc2ccc(OC)c(OC)c2)ccc(C(=O)O)c1O` the melting point was 104 to 110 °C.
`Clc1cc(Nn2cccc2)ncn1` gave a melting point of 196 to 198 °C.
`CCCCCCCc1ccc(CC2C=CC(Oc3ccc(C(=O)O)o3)=C3N=C4CCCCC4=C32)cc1` (stereo not drawn) gave a melting point of 164 to 165 °C.
`O=c1nc(-c2cccc(S(=O)(=O)Cc3ccccc3)n2)sc2ccccc12` gave a melting point of 217 to 218 °C.
`COc1ccc(CS(=O)(=O)c2cc3ccc(OC)cc3oc2=O)cc1` gave a melting point of 179 to 180 °C.
With `COc1ccc2c(c1)C(=O)c1c-2c(N2CCN(C(=O)CCNCCN(C)C)CC2)nc2ccccc12` the melting point was 161 to 162 °C.
Work on `O=C(NCCc1ccc2c(c1)OCO2)C12CC3CC(CC(C3)C1)C2` yielded a melting point of 146 to 148 °C.
For `CCOC(=O)Cc1nnc(-c2cc3cccc(N(C)S(=O)(=O)c4cccs4)c3[nH]2)s1`, the melting point was 201 to 202 °C.
Compound `CCC1(C2CCCC2)Cc2cc(OC)c(Cl)c(Cl)c2C1=O` (stereo not drawn) has a melting point of 163 °C.
Compound `COc1ccc2c(c1)CC[C@@H](O)[C@@H]2N1CCCC1` (relative stereo) has a melting point of 79 to 80 °C.
Compound `CCCCn1cc(N)c(=O)c2cnc(-c3ccncc3)nc21` has a melting point of 195 to 196 °C.
`CCCc1ccc(-c2ccn([C@H](CC(=O)O)C(=O)N[C@H](C(=O)NC)C(C)(C)C)c2)cc1` showed a melting point of 104 to 106 °C.
With `O=C(c1cc(O)c(O)c([N+](=O)[O-])c1)c1cccs1` the melting point was 155 to 157 °C.
`C=C(C)C(=O)OCCOC(=O)C(=O)OCc1ccc(OCc2ccccc2)cc1` gave a melting point of 40 to 42 °C.
For `OC(c1ccc(F)cc1)C1CC2CCN1CC2` (stereo not drawn), the melting point was 69 to 70 °C.
`CSc1nc(C)cc(OC(F)F)n1` showed a melting point of 40 to 42 °C.
Compound `CSC(=NCCSCc1[nH]cnc1C)NC#N` has a melting point of 148 to 150 °C.
With `Cc1cc(Nc2ccc(Cl)cc2)nc(-n2ncc3ccccc32)n1` the melting point was 167 to 169 °C.
`COc1ccc(SC)c2c1CC(N)(C#N)CC2` (stereo not drawn) showed a melting point of 128 to 130 °C.
Work on `O=c1nc(-c2ccc(F)cc2)c2c([nH]1)CCCC2` yielded a melting point of 248 to 253 °C.
For `COC(=O)COc1ccc(OC/C=C(/c2ccc(Cl)cc2)c2ccc(I)cc2)cc1C`, the melting point was 89 to 92 °C.
Compound `CC1(C)CCC(C)(C)c2c(C(O)C#C[Si](C)(C)C)cc(-c3ccccc3)cc21` (stereo not drawn) has a melting point of 145 °C.
In the case of `Cn1nc(-c2cc(C(=O)O)c(Cl)cc2F)c(Cl)c1OC(F)F`, the melting point was 137 to 140 °C.
With `CC(=O)NC1CC(=O)CC(=O)C1` the melting point was 181 to 183 °C.
`Cc1cc(C)n2ncc(F)c2n1` showed a melting point of 129 to 130 °C.
Work on `COc1ccc(N2CCOCC2)c2sc(-c3nc(-c4ccc5c(c4)OCCO5)c[nH]3)nc12` yielded a melting point of 235 to 237 °C.
Work on `CN1CCNC(c2ccccc2)c2cc(Cl)ccc21` (stereo not drawn) yielded a melting point of 66 to 68 °C.
Compound `[N-]=[N+]=Nc1cc(Oc2ccc3c(c2)CCN3C(=O)Nc2cccc(C(F)(F)F)c2)ncn1` has a melting point of 167 to 168 °C.
In the case of `Cc1ccc2c(c1)N(CC(=O)c1ccco1)C(=O)C(NC(=O)Nc1cccc(C(=O)O)c1)CN2C(=O)C(C)(C)C` (stereo not drawn), the melting point was 202 to 204 °C.
In the case of `Cc1nnc2ncc(-c3cccc(C(F)(F)F)c3)nn12`, the melting point was 265 to 268 °C.
For `CC(C)N1CCN(C(=O)COC2c3ccccc3C(=O)N2c2ccc3ccc(Cl)nc3n2)CC1` (stereo not drawn), the melting point was 186 °C.
For `COc1c(Cl)ccc(-c2nc(N)c(Cl)c(C(=O)O)n2)c1F`, the melting point was 172 to 173 °C.
With `CSc1ccc(-c2ccc(=O)[nH]c2C)cc1` the melting point was 211 to 212 °C.
`Cn1nc(-c2cnc(N)nc2-c2cccc(F)c2)ccc1=O` showed a melting point of 212 °C.
For `CN1CCN(c2nc(-c3ccccc3)c(-c3ccnc(S(C)=O)n3)s2)CC1` (stereo not drawn), the melting point was 166 to 169 °C.
With `COc1ccccc1S(=O)(=O)NC(=O)c1ccc(C(=O)O)nc1` the melting point was 234 to 236 °C.
With `COc1cccc2c(=O)c(C=O)coc12` the melting point was 174 to 176 °C.
Work on `CC(NCCN(CCNC(C)=C1C(=O)CC(C)(C)CC1=O)C(=O)CCC(=O)O)=C1C(=O)CC(C)(C)CC1=O` yielded a melting point of 65 to 68 °C.
Work on `CN1CCN(c2cccc3ccc(OCc4cccc(Cl)c4)cc23)CC1` yielded a melting point of 67.5 to 68 °C.
`N#Cc1cc(F)c(-c2ncnc(C(F)(F)F)c2Cl)cc1[N+](=O)[O-]` gave a melting point of 90 to 92 °C.
`CCCCC(CC(=O)O)C(=O)O` (stereo not drawn) showed a melting point of 82 to 83 °C.
`CCC(CC)(CCC#N)C(NC(=O)c1ccc(Cl)cc1)Nc1c(Nc2cccnc2)c(=O)c1=O` (stereo not drawn) showed a melting point of 242 to 243 °C.
`CN1c2ccccc2Sc2cn(C)c(=O)c(C#N)c21` showed a melting point of 236 to 237 °C.
